≈ marks a conversion by molar mass, not a printed value.
Assays:
[1] = system: Staphylococcus aureus (ATCC 6538P); test: Antibacterial assay (MIC), Staphylococcus aureus ATCC 6538P, Luria Broth, Example 1; assay type: cell-based; conditions: Staphylococcus aureus, ATCC6538P; Example 1 compounds; S. aureus ATCC 6538P; 24 hrs, 37° C.; range if at least two of three values fell within it; read-out: Sa (minimum inhibitory concentration)
Experimental: (§1) Antibacterial Assay Method for Staphylococcus aureus (ATCC 6538P) and Enterococcus faecium
Staphylococcus aureus (ATCC 6538P)
(§2) Compounds are accurately weighed out (between approx. 1-2 mg) and dissolved in either 10% methanol/water (v/v) or 100% DMSO to a final stock concentration of 5 mg/ml.
(§3) Compounds are then diluted 1/10 in H2O to a test conc of 500 ug/ml ready for immediate use, or storage at −20° C.
(§4) Grow up an o/n starter culture of Staphylococcus aureus and each VRE strain by diluting previous culture (stored at 4° C.) 1/1000 into −50 mls Luria Broth (LB) for S. aureus or Enterococossel Broth (EB) for the VRE strains.
(§5) Incubate o/n at 37° C.+shaking. • A glycerol stock (0.6 mls bacterial culture, 0.3 mls glycerol) of each strain is kept at −80° C. if needed. Assay Set Up:
(§6) In a 96well round bottom plate add 50 ul LB/well for the S. aureus plate and add 50 ul EB/well for the VRE plates.
(§7) Add 50 ul of compound dilution (500 ug/ml test conc) to each of three top row wells (ie: tested in triplicate) and dilute 1 in 2 from the top row to the bottom row.
(§8) After the compound dilution, add to each well 50 ul of a 1/1000 dilution of the appropriate overnight bacterial culture, either S. aureus or the different VRE strains.
(§9) Plates are incubated at 37° C. on a slowly rotating plate incubator. • test concentrations are (in ug/ml) 125, 62.5, 31.25, 15.6, 7.8, 3.9, 1.9, 0.98 • final DMSO concentration in the first row of wells of the assay is 2.5% • Vancomycin is included in the assay (in triplicate) at a starting test concentration of 5 ug/ml for S. aureus and 125 ug/ml for the VRE strains Reading Results of Assay:
(§10) After incubation for 24 hrs the plates are removed and read. Inhibition of bacterial growth is indicated by lack of bacterial pellet or a clear well. In the VRE plates bacterial growth is indicated by black coloured media (EB) as well as a bacterial pellet.
(§11) Untreated control wells are included in the assay to check they all contain bacterial pellets. Uninoculated untreated control wells are included to check they all contain clear medium.
(§12) The plates are analysed for MIC and the results tabulated.

[2] = system: #243 E. faecium van B ST17; test: Antibacterial assay (MIC), VRE strain #243, Enterococossel Broth, Example 1; assay type: cell-based, Enterococcus faecium; conditions: Enterococcus faecium; Example 1 compounds; VRE #243 E. faecium van B; 24 hrs, 37° C.; read-out: 243 (minimum inhibitory concentration)
Experimental: as §1
(§13) VRE strains: #243 E. faecium van B ST17 #449 E. faecium van B ST17
as §2, §3, §4, §5, §6, §7, §8, §9, §10, §11, §12

[3] = system: #449 E. faecium van B ST17; test: Antibacterial assay (MIC), VRE strain #449, Enterococossel Broth, Example 1; assay type: cell-based, Enterococcus faecium; conditions: Enterococcus faecium; Example 1 compounds; VRE #449 E. faecium van B; 24 hrs, 37° C.; read-out: 449 (minimum inhibitory concentration)
Experimental: as §1, §13, §2, §3, §4, §5, §6, §7, §8, §9, §10, §11, §12

[4] = system: #820 E. faecium van A ST17; test: Antibacterial assay (MIC), VRE strain #820, Enterococossel Broth, Example 1; assay type: cell-based, Enterococcus faecium; conditions: Enterococcus faecium; Example 1 compounds; VRE #820 E. faecium van A; 24 hrs, 37° C.; read-out: 820 (minimum inhibitory concentration)
Experimental: as §1
(§14) #820 E. faecium van A ST17 #987 E. faecium van B ST39
as §2, §3, §4, §5, §6, §7, §8, §9, §10, §11, §12

[5] = system: #987 E. faecium van B ST39; test: Antibacterial assay (MIC), VRE strain #987, Enterococossel Broth, Example 1; assay type: cell-based, Enterococcus faecium; conditions: Enterococcus faecium; Example 1 compounds; VRE #987 E. faecium van B; 24 hrs, 37° C.; read-out: 987 (minimum inhibitory concentration)
Experimental: as §1, §14, §2, §3, §4, §5, §6, §7, §8, §9, §10, §11, §12

SMILES | MIC [1] | MIC [2] | MIC [3] | MIC [4] | MIC [5]
N=C(N)NCCC[C@@H](NC(=O)CCCOc1ccc2ccccc2c1-c1c(OCCCC(=O)N[C@H](CCCNC(=N)N)C(=O)OCc2ccccn2)ccc2ccccc12)C(=O)OCc1ccccn1 [Compound 37] | 0.99 to 15.6 µg/mL (≈ 1.04 to 16.4 µM) | > 62.6 µg/mL | > 62.6 µg/mL | > 62.6 µg/mL | > 62.6 µg/mL
CC(C)CCOc1ccc2ccccc2c1-c1c(OCC(=O)N[C@H](CCCCN)C(=O)N[C@H](CCCNC(=N)N)C(=O)N[C@@H](CC(C)C)c2ncc(Cc3ccccc3)o2)ccc2ccccc12.Cl.Cl (atropisomer, axis not shown) [Compound 18] | 0.99 to 15.6 µg/mL | 15.7 to 62.5 µg/mL | 15.7 to 62.5 µg/mL | 15.7 to 62.5 µg/mL | 15.7 to 62.5 µg/mL
C=CCOc1ccc2ccccc2c1-c1c(OCC(=O)N[C@H](CCCN)C(=O)Nc2cccc(C(=O)OC)c2)ccc2ccccc12.Cl (atropisomer, axis not shown) [Compound 41] | 0.99 to 15.6 µg/mL | > 62.6 µg/mL | > 62.6 µg/mL | > 62.6 µg/mL | > 62.6 µg/mL
C=CCOc1ccc2ccccc2c1-c1c(OCC(=O)N[C@H](CCCN)C(=O)Nc2cccc(C(=O)OCc3ccccc3)c2)ccc2ccccc12.Cl (atropisomer, axis not shown) [Compound 42] | 15.7 to 62.5 µg/mL | > 62.6 µg/mL | > 62.6 µg/mL | > 62.6 µg/mL | > 62.6 µg/mL
C=CC[C@H](NC(=O)[C@@H](CCCNC(=N)N)NC(=O)[C@@H](CCCCN)NC(=O)COc1ccc2ccccc2c1-c1c(OCC(C)(C)C)ccc2ccccc12)C(=O)OCc1ccccc1 [Compound 27] | 0.99 to 15.6 µg/mL (≈ 1.12 to 17.6 µM) | 15.7 to 62.5 µg/mL (≈ 17.7 to 70.5 µM) | 15.7 to 62.5 µg/mL (≈ 17.7 to 70.5 µM) | 15.7 to 62.5 µg/mL (≈ 17.7 to 70.5 µM) | > 62.6 µg/mL
Cc1ccc(COC(=O)[C@H](CC(C)C)NC(=O)[C@@H](CCCNC(=N)N)NC(=O)[C@@H](CCCCN)NC(=O)COc2ccc3ccccc3c2-c2c(OCCC(C)C)ccc3ccccc23)cc1.Cl.Cl (atropisomer, axis not shown) [Compound 9] | 0.99 to 15.6 µg/mL | > 62.6 µg/mL | 15.7 to 62.5 µg/mL | 15.7 to 62.5 µg/mL | 15.7 to 62.5 µg/mL
CC(C)CCOc1ccc2ccccc2c1-c1c(OCC(=O)N[C@H](CCCCN)C(=O)N[C@H](CCCNC(=N)N)C(=O)N[C@@H](CC(C)C)C(=O)OCc2ccc([N+](=O)[O-])cc2)ccc2ccccc12.Cl.Cl (atropisomer, axis not shown) [Compound 5] | 0.99 to 15.6 µg/mL | 15.7 to 62.5 µg/mL | 15.7 to 62.5 µg/mL | 15.7 to 62.5 µg/mL | 15.7 to 62.5 µg/mL
CC(C)C[C@H](NC(=O)[C@@H](CCCNC(=N)N)NC(=O)[C@@H](CCCCN)NC(=O)COc1ccc2ccccc2c1-c1c(OCCc2ccccc2)ccc2ccccc12)C(=O)OCc1ccccc1.Cl.Cl (atropisomer, axis not shown) [Compound 28] | 0.99 to 15.6 µg/mL | 15.7 to 62.5 µg/mL | 15.7 to 62.5 µg/mL | 15.7 to 62.5 µg/mL | 15.7 to 62.5 µg/mL
C=CCOc1ccc2ccccc2c1-c1c(OCC(=O)N[C@H](CCCNC(=N)N)C(=O)Nc2cccc(C(=O)OCc3ccccc3)c2)ccc2ccccc12.Cl (atropisomer, axis not shown) [Compound 45] | 0.99 to 15.6 µg/mL | 15.7 to 62.5 µg/mL | 15.7 to 62.5 µg/mL | 15.7 to 62.5 µg/mL | 15.7 to 62.5 µg/mL
Cl.Cl.NCCCC[C@@H](NC(=O)CCCOc1ccc2ccccc2c1-c1c(OCCCC(=O)N[C@H](CCCCN)C(=O)OCc2cccc3ccccc23)ccc2ccccc12)C(=O)OCc1cccc2ccccc12 (atropisomer, axis not shown) [Compound 35] | 0.99 to 15.6 µg/mL | > 62.6 µg/mL | > 62.6 µg/mL | 15.7 to 62.5 µg/mL | > 62.6 µg/mL
C=CC[C@H](NC(=O)[C@@H](CCCNC(=N)N)NC(=O)[C@@H](CCCCN)NC(=O)COc1ccc2ccccc2c1-c1c(OCCC(C)C)ccc2ccccc12)C(=O)OCc1ccccc1.Cl.Cl (atropisomer, axis not shown) [Compound 29] | 0.99 to 15.6 µg/mL | 15.7 to 62.5 µg/mL | 0.99 to 15.6 µg/mL | 0.99 to 15.6 µg/mL | 15.7 to 62.5 µg/mL
CC(C)CCOc1ccc2ccccc2c1-c1c(OCC(=O)N[C@H](CCCCN)C(=O)N[C@H](CCCNC(=N)N)C(=O)N[C@@H](CC(C)C)C(=O)OCc2c(Cl)cccc2Cl)ccc2ccccc12.Cl.Cl (atropisomer, axis not shown) [Compound 8] | 15.7 to 62.5 µg/mL | > 62.6 µg/mL | > 62.6 µg/mL | > 62.6 µg/mL | > 62.6 µg/mL

More lines, now with the values ahead:

MIC [1] | MIC [2] | MIC [3] | MIC [4] | MIC [5] | SMILES
0.99 to 15.6 µg/mL | 15.7 to 62.5 µg/mL | 15.7 to 62.5 µg/mL | 15.7 to 62.5 µg/mL | 15.7 to 62.5 µg/mL | C=CC[C@H](NC(=O)[C@@H](CCCNC(=N)N)NC(=O)[C@@H](CCCCN)NC(=O)COc1ccc2ccccc2c1-c1c(OCCCCC)ccc2ccccc12)C(=O)OCc1ccccc1.Cl.Cl (atropisomer, axis not shown) [Compound 26]
0.99 to 15.6 µg/mL | 15.7 to 62.5 µg/mL | 15.7 to 62.5 µg/mL | 15.7 to 62.5 µg/mL | 15.7 to 62.5 µg/mL | CC(C)CCOc1ccc2ccccc2c1-c1c(OCC(=O)N[C@H](CCCCN)C(=O)N[C@H](CCCNC(=N)N)C(=O)N[C@@H](CC(C)C)C(=O)OCc2cccc(Cl)c2)ccc2ccccc12.Cl.Cl (atropisomer, axis not shown) [Compound 6]
0.99 to 15.6 µg/mL | 15.7 to 62.5 µg/mL | 15.7 to 62.5 µg/mL | 15.7 to 62.5 µg/mL | 15.7 to 62.5 µg/mL | C=CCOc1ccc2ccccc2c1-c1c(OCC(=O)N[C@H](CCCCN)C(=O)N[C@H](CCCNC(=N)N)C(=O)N[C@@H](CC(C)C)C(=O)OCc2ccccc2)ccc2ccccc12.Cl.Cl (atropisomer, axis not shown) [Compound 22]
0.99 to 15.6 µg/mL | > 62.6 µg/mL | > 62.6 µg/mL | 15.7 to 62.5 µg/mL | > 62.6 µg/mL | C=CCOc1ccc2ccccc2c1-c1c(OCC(=O)N[C@H](CCCNC(=N)N)C(=O)Nc2cccc(C(=O)OC)c2)ccc2ccccc12.Cl (atropisomer, axis not shown) [Compound 44]
0.99 to 15.6 µg/mL | 15.7 to 62.5 µg/mL | 15.7 to 62.5 µg/mL | 15.7 to 62.5 µg/mL | 15.7 to 62.5 µg/mL | CC(C)CCOc1ccccc1-c1ccccc1OCC(=O)N[C@H](CCCCN)C(=O)N[C@H](CCCNC(=N)N)C(=O)N[C@@H](CC(C)C)C(=O)OCc1ccccc1.Cl.Cl [Compound 11]
0.99 to 15.6 µg/mL | > 62.6 µg/mL | 15.7 to 62.5 µg/mL | 15.7 to 62.5 µg/mL | > 62.6 µg/mL | Cl.Cl.N=C(N)NCCCC[C@@H](NC(=O)CCCOc1ccc2ccccc2c1-c1c(OCCCC(=O)N[C@H](CCCCNC(=N)N)C(=O)OCc2ccccc2)ccc2ccccc12)C(=O)OCc1ccccc1 (atropisomer, axis not shown) [Compound 39]
0.99 to 15.6 µg/mL | > 62.6 µg/mL | > 62.6 µg/mL | > 62.6 µg/mL | > 62.6 µg/mL | C=CCOc1ccc2ccccc2c1-c1c(OCC(=O)N[C@H](CCCNC(=N)N)C(=O)Nc2cccc(C(=O)NOCc3ccccc3)c2)ccc2ccccc12.Cl (atropisomer, axis not shown) [Compound 46]

Source: patent US8039430B2 (University of Wollongong, priority 2005, dated 2011)
